# Read-outs that look alike come from different tables or passages of the source.
# Columns and labels:
# HL60 cells = assay: Mitochondrial transmembrane potential (MTP) assay, Rh123/PI, HL60 cells; assay type: cell-based; details: serum-deprived quiescent versus proliferating HL60 cells, fenretinide
# Method: HL60 cells were cultured in RPMI 1640 supplemented (i) with or (ii) without 10% fetal bovine serum to obtain proliferating and quiescent leukemia cells respectively. Serum-deprived quiescent leukemic cells and proliferating leukemic cells were then cultured in media containing 0.5% FBS, and treated with 1 μM and 2.5 μM fenretinide, and also with chemotherapeutics as controls, 20 μM idarubicin (IDA) and 5 μM cytarabine (Ara-C).
# To examine the effects of fenretinide on proliferating and quiescent leukemia cells, HL60 cells were chosen as serum deprived quiescent leukemic cell model obtained when incubated in RPMI 1640 without serum for 48 h, with G0/G1 phase cells (being in quiescent state) accounting up to 59.9%. Serum-deprived quiescent leukemic cells and proliferating leukemic cells were then cultured in media containing 0.5% FBS, and treated with 1 μM and 2.5 μM fenretinide, and also with chemotherapeutics as controls, 20 μM idarubicin (IDA) and 5 μM cytarabine (Ara-C). […] Fenretinide induces intracellular production of ROS, lowers mitochondrial transmembrane potential (MTP), and eventually leads to apoptosis in a variety of malignancies. We measured MTP induced by fenretinide in proliferating and quiescent HL60 cells, as examined through rhodamine 123 and propidium iodide staining and followed by flow cytometry analysis. […] We further measured intracellular ROS abundance induced by fenretinide. […] After incubation with 1 μM and 2.5 μM fenretinide for 3 h, the ROS level of proliferating cells increased by 1.77 and 2.6 fold, respectively.
# CML CD34+ cells = assay: Colony forming assay in primary CML CD34+ cells; assay type: cell-based, human; details: 14 days; for inhibition at 2 µM / inhibition at 4 µM: Homo sapiens, 336 h; for inhibition at 2 µM: 2 μM fenretinide; for inhibition at 4 µM: 4 μM fenretinide
# Description: Fresh bone marrow (BM) cells were obtained from 38 patients with CML and 5 non-leukemic donors, 25 AML, 17 ALL, and 8 normal specimens with informed consent according to the Declaration of Helsinki. Approval was obtained from Institutional Review Board at the School of Medicine in Shanghai Jiao Tong University. BM mononuclear cells were isolated by Ficoll density gradient centrifugation (Shanghai Second Reagent Factory, Shanghai, China). CD34^+ Cell were selected using EasySep® Human CD34 Positive Selection kit (Stem Cell Technologies, Vancouver, BC, Canada) according to the manufacturer's instructions. […] The CD34^+ cells were cultured in a serum-free medium (StemPro 34; Gibco BRL, Gaithersburg, Md.) supplemented with growth factors (PeproTech, London, United Kingdom) (20). The growth factors consisted of GM-CSF (200 pg/mL), G-CSF (1 ng/mL); SCF (200 pg/mL); LIF (50 pg/mL), MIP-1α (200 pg/mL) and IL-6 (1 ng/mL).
# A quantity of 1000 CD34^+ cells were plated in semisolid methylcellulose-based media (Methocult H4434: Stem Cell Technologies, Vancouver, BC, Canada). After incubation at 37° C. in a fully humidified atmosphere of 5% CO2 for 14 days, granulocyte macrophage-colony-forming units (CFU-GM), erythroid burst-forming units (BFU-E), granulocyte, erythrocyte and monocyte, megakaryocyte-colony-forming units (CUF-GEMM) were counted. Only clusters with >50 cells were counted as a colony.
# We further performed study to examine the effects of fenretinide on colony forming in primary CML cells derived from 38 bone marrow specimens of CML patients (TABLE 1). First, CML CD34^+ Cells were isolated using EasySep® Human CD34 Positive Selection kit (Stem Cell Technologies, Vancouver, BC, Canada). Upon treated with 2 μM and 4 μM fenretinide, colony forming assays were performed respectively on granulocyte macrophage-colony-forming units (CFU-GM), erythroid burst-forming units (BFU-E), granulocyte, erythrocyte and monocyte, megakaryocyte-colony-forming units (CFU-GEMM).
# ALL CD34+ cells = assay: Viability of ALL CD34+ cells; assay type: cell-based; details: Homo sapiens
# Description: Fresh bone marrow (BM) cells were obtained from 38 patients with CML and 5 non-leukemic donors, 25 AML, 17 ALL, and 8 normal specimens with informed consent according to the Declaration of Helsinki. Approval was obtained from Institutional Review Board at the School of Medicine in Shanghai Jiao Tong University. BM mononuclear cells were isolated by Ficoll density gradient centrifugation (Shanghai Second Reagent Factory, Shanghai, China). CD34^+ Cell were selected using EasySep® Human CD34 Positive Selection kit (Stem Cell Technologies, Vancouver, BC, Canada) according to the manufacturer's instructions. The purity of CD34 cells ranged between 92 and 98% in all samples detennined by flow cytometry. The CD34^+ cells were cultured in a serum-free medium (StemPro 34; Gibco BRL, Gaithersburg, Md.) supplemented with growth factors (PeproTech, London, United Kingdom) (20). The growth factors consisted of GM-CSF (200 pg/mL), G-CSF (1 ng/mL); SCF (200 pg/mL); LIF (50 pg/mL), MIP-1α (200 pg/mL) and IL-6 (1 ng/mL).
# Primitive AML and CML subpopulations (CD34^+ cells) were identified using CD34-PE in combination with CD38-APC, and followed by double-labeling with 7AAD and Annexin V antibodies for apoptosis assessment. […] Subsequently, the samples were incubated at room temperature for 15 minutes and analyzed by flow cytometry. […]
# [1] = read-out: inhibition of BFU-E number
# [2] = CFU-GM, read-out: inhibition of CFU-GM number
compound,measurement,setting,value
"CC1=C(/C=C/C(C)=C/C=C/C(C)=C/C(=O)Nc2ccc(O)cc2)C(C)(C)CCC1 [fenretinide, N-(4-hydroxyphenyl)retinamide]",mitochondrial transmembrane potential (MTP),HL60 cells,more significant reduced MTP
same,inhibition at 2 µM,CML CD34+ cells; [1],24%
same,inhibition at 4 µM,CML CD34+ cells; [1],66%
same,inhibition at 2 µM,CML CD34+ cells; [2],19%
same,inhibition at 4 µM,CML CD34+ cells; [2],36 ± 9%
same,GFU-GEMM formed by the more primitive progenitor cells,CML CD34+ cells; fenretinide 2 μM and 4 μM,could not be detected
same,viability at 5 µM,ALL CD34+ cells; 5 μM fenretinide,58%
same,viability at 7.5 µM,ALL CD34+ cells; 7.5 μM fenretinide,20.9%
